Data set [1] deals with peach aphids (Myzus persicae). In words: Myzus test (cabbage leaf dip). The format is in vivo. Conditions: cabbage leaves dipped. As to the method:
Myzus test Solvent: 7 parts by weight of dimethylformamide Emulsifier: 1 part by weight of alkylaryl polyglycol ether To produce a suitable preparation of active compound, 1 part by weight of active compound is mixed with the stated amounts of solvent and emulsifier, and the concentrate is diluted with emulsifier-containing water to the desired concentration. Cabbage leaves (Brassica oleracea) which are heavily infested by peach aphids (Myzus persicae) are treated by being dipped into the preparation of active compound of the desired concentration. After the desired period of time, the kill in % is determined. 100% means that all aphids have been killed; 0% means that none of the aphids have been killed.

Another data set has as its system Meloidogyne incognita. Put plainly: Meloidogyne test (gall formation on lettuce roots). Conditions: 20 ppm active compound, nematicidal action by gall formation on lettuce. The format is in vivo. As to the method:
Meloidogyne test Solvent: 7 parts by weight of dimethylformamide Emulsifier. 1 part by weight of alkylaryl polyglycol ether To produce a suitable preparation of active compound, 1 part by weight of active compound is mixed with the stated amounts of solvent and emulsifier, and the concentrate is diluted with water to the desired concentration. Vessels are filled with sand, solution of active compound, Meloidogyne incognita egg/larvae suspension and lettuce seeds. The lettuce seeds germinate and the plants develop. On the roots, galls develop. After the desired period of time, the nematicidal action is determined in % by the formation of galls. 100% means that no galls have been found; 0% means that the number of galls on the treated plants corresponds to that of the untreated control.

In another data set the test system is Myzus persicae. Put plainly: Critical concentration test/root-systemic action. In kind it is in vivo. Conditions: 1.25 ppm in soil; root-systemic, broad beans; populated after 7 days, evaluated after a further 8 days. As to the method:
Critical concentration test/root-systemic action Test insect: Myzus persicae Solvent: 4 parts by weight of acetone Emulsifier: 1 part by weight of alkylaryl polyglycol ether To produce a suitable preparation of active compound, 1 part by weight of active compound is mixed with the stated amount of solvent, the stated amount of emulsifier is added and the concentrate is diluted with water to the desired concentration. The preparation of active compound is mixed intimately with the soil. The concentration of the active compound in the preparation is virtually immaterial, only the amount by weight of active compound per volume unit of soil, which is stated in ppm […], being decisive. The treated soil is filled into 250 ml pots and pregerminated broad beans are planted in these. Thus, the active compound can be taken up by the plant roots from the soil and then transported into the leaves. To assess the root-systemic effect, the plants are populated with the above-mentioned test animals after 7 days. After a further 8 days, evaluation is carried out by counting or estimating the number of dead animals. The root-systemic action of the active compound is derived from the number of animals killed. It is 100% if all test animals have been killed and 0% when the number of test insects that are still alive is the same as for the untreated control.

For data set [2], the system named is larvae of the mustard beetle (Phaedon cochleariae). Put plainly: Phaedon larvae test (cabbage leaf dip). Conditions: 100 ppm active compound, cabbage leaves dipped. In kind it is in vivo. The procedure:
Phaedon larvae test Solvent: 7 parts by weight of dimethylformamide Emulsifier: 1 part by weight of alkylaryl polyglycol ether To produce a suitable preparation of active compound, 1 part by weight of active compound is mixed with the stated amounts of solvent and emulsifier, and the concentrate is diluted with emulsifier-containing water to the desired concentration. Cabbage leaves (Brassica oleracea) are treated by being dipped into the preparation of active compound of the desired concentration and are populated with larvae of the mustard beetle (Phaedon cochleariae) while the leaves are still moist. After the desired period of time, the kill in % is determined. 100% means that all beetle larvae have been killed; 0% means that none of the beetle larvae have been killed.

The values that follow come from patent publication US6861391B1, “Trifluoromethyl-substituted spirocyclic ketoenols” (Bayer Aktiengesellschaft, priority 1999, dated 2005).

Turning to `CCOC(=O)OC1=C(c2c(C)cc(C)cc2C)C(=O)NC12CCC(C(F)(F)F)CC2` (stereo not shown) [Example I-1-c-1], the “Kill rate in % after 6 d” value in data set [1] (1000 ppm active compound) was determined as 100%.

Turning to `Cc1cc(C)c(C2=C(O)C3(CCC(C(F)(F)F)CC3)NC2=O)c(C)c1C` (stereo not shown) [Example I-1-a-5], the melting point – broadly, the temperature of the solid-liquid transition – was greater than 250 °C. For the same molecule, the “Kill rate in % after 6 d” value in data set [1] (100 ppm active compound) came to 100%.

In the case of `Cc1cc(C)c(C2=C(O)C3(CCC(C(F)(F)F)CC3)OC2=O)cc1C` (stereo not shown) [Example I-2-a-2], the melting point lay within 212 to 214 °C. Moreover, the “Kill rate in % after 6 d” value in data set [1] (1000 ppm active compound) is on record as 100%.

`Cc1ccc(C)c(C2=C(O)C3(CCC(C(F)(F)F)CC3)OC2=O)c1` (stereo not shown) [Example I-2-a-1]: the “Kill rate in % after 7 d” value in the data set with Meloidogyne incognita turned out to be 90%.

Consider `Cc1ccc(C)c(C2=C(O)C3(CCC(C(F)(F)F)CC3)NC2=O)c1` (stereo not shown) [Example I-1-a-2], for which the melting point was determined as 245 °C.

With `Cc1cc(Cl)c(C2=C(O)C3(CCC(C(F)(F)F)CC3)NC2=O)c(Cl)c1` (stereo not shown) [Example I-1-a-4], the melting point is greater than 250 °C.

Turning to `Cc1cc(C)c(C2=C(O)C3(CCC(C(F)(F)F)CC3)NC2=O)c(C)c1` (stereo not shown) [Example I-1-a-1], the “Kill rate in % at active compound concentrations in ppm” value with Myzus persicae is given as 1.25 ppm = 100%.

For `Cc1cc(C)c(C2=C(O)C3(CCC(C(F)(F)F)CC3)OC2=O)c(C)c1C` (stereo not shown) [Example I-2-a-3], the melting point fell in the range of 159 to 161 °C.

As for `Cc1cc(C)c(C2=C(OC(=O)C(C)C)C3(CCC(C(F)(F)F)CC3)NC2=O)c(C)c1` (stereo not shown) [Example I-1-b-1], the “Kill rate in % after 6 d” value in data set [1] (1000 ppm active compound) worked out at 95%. Besides, in data set [2], the “Kill rate in % after 7 d” value is listed as 100%.

As to `Cc1cc(C)c(C2=C(O)C3(CCC(C(F)(F)F)CC3)NC2=O)cc1C` (stereo not shown) [Example I-1-a-3], the melting point was found to be 175 °C. Further, the “Kill rate in % after 6 d” value in data set [1] (1000 ppm active compound) was 80%.

For the molecule `Cc1cc(Cl)cc(C)c1C1=C(O)C2(CCC(C(F)(F)F)CC2)NC1=O` (stereo not shown) [Example I-1-a-6], the melting point was greater than 248 °C.

As to `Cc1ccc(Br)c(C2=C(O)C3(CCC(C(F)(F)F)CC3)NC2=O)c1` (stereo not shown) [Example I-1-a-7], the melting point was 212 °C.
